# Reference: US6355677B1, “Adrenoleukodystrophy treatments and drug screening” (The Johns Hopkins University, priority 1998, dated 2002)
# Where “and” joins values, the source holds several entries; their conditions need not be identical. Equal entries are not always repeated. Entries after “also recorded” stand apart in the source; their conditions may differ.
# Legend:
# [1] = tested on: X-ALD human lymphoblastoid cells; test: C24:0 β-oxidation ([1-14C]-C24:0 degradation); format: cell-based; conditions: 5 mM 4PBA for 6 days
# Procedure: (§1) Cell lines derived from X-ALD patients and X-ALD mice were grown in MEM (fibroblasts) or RPMI (lymphoblastoid cells) supplemented with fetal calf serum (10%), penicillin (100 U/ml), streptomycin (100 U/ml) and glutamine (2 mM). […] Cells in the second flask were grown without drug for the same length of time and served as controls. The media were changed every 3-4 days.
# (§2) For VLCFA measurements, total lipids were extracted, converted to methyl esters, purified by TLC and subjected to capillary GC analysis as described. Duplicate assays were set up independently and were assayed on different days. C24:0 β-oxidation activity of human and mouse fibroblasts and human lymphoblastoid cells was determined by measuring their capacity to degrade [1-^14C]-C24:0 fatty acid (American Radiolabeled Chemicals, St. Louis, Mo.) to water-soluble products as described. Phytanic acid oxidation was measured as described. Cells were incubated with [2,3-^3H]-phytanic acid for 24 hours, and the release of ^3H-H2O to the aqueous medium was determined (activity in pmol/hr per mg protein).
# [2] = tested on: X-ALD human primary fibroblasts; test: C24:0 β-oxidation ([1-14C]-C24:0 degradation); format: cell-based; conditions: 5 mM 4PBA for 6 days
# Procedure: as §1, §2
# [3] = tested on: X-ALD mouse primary fibroblasts; test: C24:0 β-oxidation ([1-14C]-C24:0 degradation); format: cell-based; conditions: 5 mM 4PBA for 6 days
# Procedure: as §1, §2
# ALDP = test: Semi-quantitative RT-PCR, human primary fibroblasts; format: cell-based; conditions: normal fibroblasts, 5 mM, 2 days
# Procedure: (§3) Semi-quantitative RT-PCR was done on the mRNA isolated from these cells (FIG. 1). […] In addition, the expression of acyl-CoA oxidase (AOX), the rate-limiting enzyme in VLCFA β-oxidation, was not affected. Although previous studies have reported that ALDR mRNA was not detectable in fibroblasts by either northern or RT-PCR analyses, those RT-PCR studies used about 66 ng of CDNA; we used about 250 ng of cDNA.
# (§4) Total RNA from tissue culture cells (10^6-10^7 cells/sample) was isolated using TRizol Reagent™ (Life Technologies), treated with DNase I (100-200 units in 40 mM HC, 10mM NaC, 6 mM MgCl2, pH 7.3), incubated at 37° C. for 30 min, extracted with pheno/chloroform, and precipitated with isopropanol. cDNA was generated using MMLV reverse transcriptase (RT) (Life Technologies). PCR was done in the linear range of amplification (determined for each primerpair-cDNA combination). For each cDNA sample, a ‘cocktail’ was prepared, containing PCR buffer (Promega), 200 µM of each DNTP, 1.5 mM MgCl2, 250 ng cDNA, 0.25 U of Taq polymerase (Promega) and […]. The ‘cocktail’ was divided into separate tubes containing cDNA specific primers.
# (§5) The PCR primers used are listed below. In the parentheses, h indicates human and m, mouse; this is followed by the gene name, product size and annealing temperature. For primer sequences, F is forward and R is reverse. (hALD, 249, 64° C.) F: 5′-[…]-3′, R: 5′-[…]-3′; (mALD, 526, 59° C.) F: 5′-[…]-3′, R: 5′-[…]-3′; (hPMP70, 405, 60° C.) F: 5′-[…]-3′, R: 5′-[…]-3′; (mPMP70, 405, 60° C.) F: 5′-TTr[…]-3′, R: 5′-[…]-3′; (hALDR, 312, 56° C.) F: 5-[…]-3′, R: 5′-[…]-3′; (mALDR, 711, 57° C.) F: 5′-[…]-3′, R: 5′-[…]-3′; (hPMP69, 319, 60° C.) F: 5′-[…]-3′, R: 5-[…]-3′; (hAOX, 405, 60° C.) F: 5′-[…]-3′, R: 5′[…]-3′; (mAOX, 247, 60° C.) F: 5′-[…]r[…]-3′, R: 5′-[…]-3′; (hPPARα, 347, 60° C.) F: 5-[…]r[…]rCC-3′, R: 5′-[…]-3′; (mFPPARa, 268, 60° C.) F: 5′-GATTr[…]-TGAGG-3, R: 5′-[…]-3′; (hPex11α 658, 55° C.) F: 5-[…]-3′, R: 5′-[…]-3′; (mpex11α, 720, 55° C.) F: 5′-[…]r[…]-3′, R: 5′-[…]-3′; (β-Actin, 460, 62° C.) F:5′-[…]-3′, R: 5′-[…]-3, (glyceraldehyde 3-phosphate dehydrogenase (GAPDH), 528, 62° C.) F: 5′-[…]-3, R: 5′-[…]-3′. β-Actin and GAPDH primers were used for both human and mouse analyses.
# ALDR mRNA = test: as above; format: cell-based; conditions: normal and X-ALD fibroblasts, 5 mM, 2 days, relative to β-actin
# Procedure: as §3, §4, §5
# PMP69 = test: as above; format: cell-based; conditions: X-ALD or normal fibroblasts, 5 mM, 2 days
# Procedure: as §3, §4, §5
# PMP70 = test: as above; format: cell-based; conditions: X-ALD or normal fibroblasts, 5 mM, 2 days
# Procedure: as §3, §4, §5
# acyl-CoA oxidase (AOX) = test: as above; format: cell-based; conditions: 5 mM
# Procedure: as §3, §4, §5
# PPARα [4] = test: as above; format: cell-based; conditions: human X-ALD fibroblasts, 5 mM, up to 10 days
# Procedure: as §4
# (§6) The PCR primers used are listed below. In the parentheses, h indicates human and m, mouse; this is followed by the gene name, product size and annealing temperature. For primer sequences, F is forward and R is reverse. […]
# Pex11α = test: as above; format: cell-based; conditions: 5 mM, 2 days
# Procedure: as §4, §6
# PPARα [5] = test: Semi-quantitative RT-PCR, mouse primary fibroblasts; format: cell-based; conditions: mouse X-ALD fibroblasts, 5 mM, 2 days
# Procedure: as §4, §6
# [6] = tested on: human primary fibroblasts; test: Phytanic acid oxidation ([2,3-3H]-phytanic acid); format: cell-based; conditions: 5 mM, 10 days
# Procedure: Phytanic acid oxidation occurs exclusively in the peroxisomal matrix and can therefore serve as a marker for peroxisomal function. […] SCP2 is a 15-kDa protein located exclusively in the peroxisomal matrix.
# as §2
# X-ALD mice = test: In vivo efficacy: VLCFA levels in brain and adrenal glands after dietary treatment; design: species or system mouse
# Procedure: To measure the in vivo efficacy of 4-PBA, we supplemented mouse chow and water with 4-PBA.
# In vivo delivery of 4-PBA to X-ALD mice. 4-PBA was delivered to X-ALD mice in their regular chow and water. 4-PBA chow was prepared by B'OServ (Holton Industries, Frenchtown, N.J.). […] Brains and adrenal glands from normal LD and X-ALD/4-PBA mice were collected for VLCFA analysis as described.
# ΔF508-CFTR = conditions: nasal epithelia cells, homozygous or heterozygous ΔF508-CFTR; cited from earlier work
# [7] = dietary 4-PBA (about 70 mg per day), 6 weeks
structure (smiles),measurement,setting,value
"O=C(O)CCCc1ccccc1 [4-PBA, 4-Phenyl butyrate]","C24:0 β-oxidation, Increase (treated over untreated)",[1],twofold to threefold
same,"C24:0 β-oxidation, Treated (mean specific activity)",[1],0.18 ± 0.03 nmol/hr per mg protein
same,"C24:0 β-oxidation, Increase (treated over untreated)",[2],twofold to threefold
same,"C24:0 β-oxidation, Treated (mean specific activity)",[2],0.39 ± 0.07 nmol/hr per mg protein
same,"C24:0 β-oxidation, Increase (treated over untreated)",[3],twofold to threefold
same,"C24:0 β-oxidation, Treated (mean specific activity)",[3],0.28 ± 0.03 nmol/hr per mg protein
same,ALDP expression level,ALDP,"little, if any, effect"
same,ALDR mRNA level,ALDR mRNA,substantially increased; also recorded: substantial increase
same,PMP69 expression level,PMP69,"little, if any, effect"
same,PMP70 expression level,PMP70,"little, if any, effect"
same,AOX expression,acyl-CoA oxidase (AOX); 2 days,unchanged; also recorded: not affected
same,AOX expression,acyl-CoA oxidase (AOX); 10 days,remained unchanged
same,PPARα expression,PPARα [4],unchanged
same,Pex11α expression,Pex11α,substantially increased; also recorded: substantial increase
same,PPARα expression,PPARα [5],increased
same,Increase in phytanic acid oxidation,[6]; X-ALD human primary fibroblasts,twofold
same,Increase in phytanic acid oxidation,[6]; normal human primary fibroblasts,twofold
same,Correction of brain C24:0,X-ALD mice; [7],complete correction; also recorded: complete normalization
same,Correction of brain C26:0,X-ALD mice; [7],78% and 80%
same,Adrenal gland VLCFA (C24:0 and C26:0) levels,"X-ALD mice; dietary 4-PBA, 4 weeks",substantial reduction
same,Brain VLCFA (C24:0 and C26:0) levels,"X-ALD mice; dietary 4-PBA, 4 weeks",substantial reduction
same,Effect on ΔF508-CFTR,ΔF508-CFTR,rescue of ΔF508-CFTR from premature degradation
